# Source: US5449612A, “Process for identifying candida by means of chromogenic substances” (Serbio, priority 1990, dated 1995)
# Residues, ends and D or L forms follow the SMILES beside them. *: point of attachment. pNA = O=[N+]([O-])c1ccc(N*)cc1
# How the values were obtained:
# [1] = tested on: N-acetyl-β-D-glucosaminidase; settings: Casal et al. 1983; Polachek et al. 1987; cited from earlier work
# C. albicans [2] = experiment: Diagnosis from isolated colonies on gelose 2/5; format: cell-based, Candida albicans; note: key: -: none; +: weak; ++: moderate; +++: intense; ++++: very intense
# C. pseudotropicalis [3] = experiment: Diagnosis from non-isolated colonies on gelose 2/5; format: cell-based, Candida pseudotropicalis; note: key: -: none; +: weak; ++: moderate; +++: intense; ++++: very intense
# C. guillermondii [4] = experiment: Diagnosis from isolated colonies on gelose 2/5; format: cell-based, Candida guillermondii; settings: Table VI; note: key: -: none; +: weak; ++: moderate; +++: intense; ++++: very intense
# C. pseudotropicalis [5] = experiment: Diagnosis from isolated colonies on gelose 2/5; format: cell-based, Candida pseudotropicalis; settings: Table VI; note: key: -: none; +: weak; ++: moderate; +++: intense; ++++: very intense
# T. glabrata [6] = experiment: Diagnosis from non-isolated colonies on gelose 2/5; format: cell-based, Torulopsis glabrata; note: key: -: none; +: weak; ++: moderate; +++: intense; ++++: very intense
# T. glabrata [7] = experiment: Diagnosis from isolated colonies on gelose 2/5; format: cell-based, Torulopsis glabrata; note: key: -: none; +: weak; ++: moderate; +++: intense; ++++: very intense
# C. guillermondii [8] = experiment: Diagnosis from non-isolated colonies on gelose 2/5; format: cell-based, Candida guillermondii; note: key: -: none; +: weak; ++: moderate; +++: intense; ++++: very intense
# C. tropicalis [9] = experiment: Diagnosis from non-isolated colonies on gelose 2/5; format: cell-based, Candida tropicalis; note: key: -: none; +: weak; ++: moderate; +++: intense; ++++: very intense
# C. zeylanoides [10] = experiment: Diagnosis from non-isolated colonies on gelose 5; format: cell-based, Candida zeylanoides; settings: Table IX, 1 strain, gelose 5, cycloheximide; note: key: -: none; +: weak; ++: moderate; +++: intense; ++++: very intense
# C. tropicalis [11] = experiment: Diagnosis from isolated colonies on gelose 2/5; format: cell-based, Candida tropicalis
# Tr. cutaneum [12] = experiment: Diagnosis from non-isolated colonies on gelose 2/5; format: cell-based, Trichosporon cutaneum
# C. albicans [13] = experiment: Diagnosis from non-isolated colonies on gelose 2/5; format: cell-based, Candida albicans
# C. parapsilosis [14] = experiment: Diagnosis from non-isolated colonies on gelose 2/5; format: cell-based, Candida parapsilosis; note: key: -: none; +: weak; ++: moderate; +++: intense; ++++: very intense
# Cr. neoformans = experiment: Diagnosis from non-isolated colonies on gelose 2/5; format: cell-based, Cryptococcus neoformans; settings: Table VIII; note: key: -: none; +: weak; ++: moderate; +++: intense; ++++: very intense
# C. krusei [15] = experiment: Diagnosis from non-isolated colonies on gelose 2/5; format: cell-based, Candida krusei
# Description: (§1) According to the afore-mentioned best mode of carrying out the invention, a culture medium containing the following ingredients is prepared; it is called gelose 2 below and is buffered to pH 6.0.
# (§2) According to the afore-mentioned best mode of carrying out the invention, a culture medium containing the following ingredients is prepared; it is called gelose 5 below and is buffered to pH 6.0.
# A mixture of several non-isolated strains of C. albicans, C. tropicalis, C. krusei, C. guillermondii, C. pseudotropicalis, C. parapsilosis, Cryptococcus neoformaas, Torulopsis glabrata and Trichosporon cutaneum was inoculated and incubated on the culture media according to Examples 1 to 5, containing the substrate N-Ac-β-D-galactosaminide-PNP of the prior art or the substrate H-Pro-pNA.AcOH according to the invention. The results, which were obtained particularly with geloses 2 and 5, are collated in Table VIII below, where the TTC column relates to results of tests undertaken separately on a standard gelose medium containing TTC.
# (§3) A mixture of several non-isolated strains of C. albicans, C. tropicalis, C. krusei, C. guillermondii, C. pseudotropicalis, C. parapsilosis, C. zeylanoides, C. ciferii, C. cerevisiae, Torulopsis glabrata and Trichosporon cutaneum was inoculated and incubated on the culture media according to Example 5, containing the substrate N-Ac-β-D-galactosaminide-PNP of the prior art or the substrate H-Pro-pNA.AcOH according to the invention.
# C. parapsilosis [16] = experiment: Diagnosis from isolated colonies on gelose 2/5; format: cell-based, Candida parapsilosis; settings: Table VI; note: key: -: none; +: weak; ++: moderate; +++: intense; ++++: very intense
# C. krusei [17] = experiment: Diagnosis from isolated colonies on gelose 2/5; format: cell-based, Candida krusei
# Description: as §1, §2
# Several isolated strains of C. albicans, C. tropicalis, C. krusei, C. guillermondii, C. pseudotropicalis, C. parapsilosis, C. zeylanoides, T. glabrata and Trichosporon cutaneum were inoculated and incubated on the media of Examples 1 to 5. […] Part of the results obtained has been collated in Table VI below, where the TTC column relates to results of tests undertaken separately on a standard gelose medium containing TTC.
# Several isolated strains of C. albicans, C. tropicalis, C. krusei, C. guillermondii and T. glabrata were inoculated and incubated on the media of Example 2 [containing either the substrate N-Ac-β-D-galactosaminide-PNP of the prior art, or the substrates H-L-PropNA.AcOH (specific for C. albicans), EM-L-Phg-L-ArgpNA.AcOH (specific for T. glabrata) and H-Gly-L-Pro-L-Arg-pNA.2AcOH (specific for C. krusei)]and of Example 5 (containing the substrate H-L-Pro-pNA.AcOH).
# Candida guillermondii = experiment: Tests on substrates against Candida guillermondii; design: Reading at 24 h: key to the marks not given beside the values; settings: Table V
# C. ciferii = experiment: Diagnosis from non-isolated colonies on gelose 5; format: cell-based; settings: Table IX, 1 strain, gelose 5, cycloheximide; note: key: -: none; +: weak; ++: moderate; +++: intense; ++++: very intense
# Tr. cutaneum [18] = experiment: Diagnosis from isolated colonies on gelose 2/5; format: cell-based, Trichosporon cutaneum; settings: Table VI; note: key: -: none; +: weak; ++: moderate; +++: intense; ++++: very intense
# Candida albicans = experiment: Tests on substrates against Candida albicans, colour reading on buffered gelose; format: cell-based; design: key to Specificity: interference with C. albicans: (a): interference with C. albicans (++++); (b): interference with C. krusei (++); (c): interference with C. tropicalis (++); settings: for Reading at 24 h: medium pH 6.0, YNB, glucose, agar, gentamycin, coloration or fluorescence
# C. zeylanoides [19] = experiment: Diagnosis from isolated colonies on gelose 2/5; format: cell-based, Candida zeylanoides; settings: Table VI; note: key: -: none; +: weak; ++: moderate; +++: intense; ++++: very intense
# C. cerevisiae = experiment: Diagnosis from non-isolated colonies on gelose 5; format: cell-based
# Description: as §2, §3
# [20] = tested on: isolated strains of Candida albicans, Candida guillermondii, Candida intermedia, Candida parapsilosis, Candida pseudotropicalis, Candida stellatoidea, Candida …; settings: YEAST-IDENT, liquid medium, 4 h at 37° C.; cited from earlier work
# Candida krusei = experiment: Tests on substrates against Candida krusei, colour reading on buffered gelose; format: cell-based
# Candida tropicalis = experiment: Tests on substrates against Candida tropicalis, colour reading on buffered gelose; format: cell-based
# T. glabrata [21] = experiment: Tests on substrates against T. glabrata, colour reading on buffered gelose; format: cell-based, Torulopsis glabrata; settings: pH 6; note: key: -: none; +: weak; ++: moderate; +++: intense; ++++: very intense
# [22] = Table VI, isolated colonies, gelose 5 (maltose, cycloheximide)
# [23] = Table VII, isolated colonies, gelose 5 with cycloheximide
# [24] = Table IX, 2 strains, gelose 5, cycloheximide
# [25] = Table VIII, gelose 5 (maltose, cycloheximide)
# [26] = gelose 5 (maltose, cycloheximide)
# [27] = Table VI, isolated colonies, 4 strains, gelose 2
# [28] = Table VII, isolated colonies, 9 strains, gelose 2
# [29] = Table IX, 1 strain, gelose 5, cycloheximide
# [30] = Table VIII, 2 strains, gelose 2
smiles,measurement,setting,value
CC(=O)N[C@H]1[C@H](Oc2ccc3ccccc3c2)O[C@H](CO)[C@@H](O)[C@@H]1O [β-naphthyl-N-acetyl-β-D-glucosaminide],reaction with isolated strains,[1],positive reaction
CC(=O)O.O=C(Nc1ccc([N+](=O)[O-])cc1)[C@@H]1CCCN1 [H-L-Pro-pNA.AcOH],Reading at t = 24 h,"C. albicans [2]; Table VI, isolated colonies, 10 strains, gelose 2",++++
same,Reading at t = 24 h,C. albicans [2]; [22],++++
same,Reading at t = 24 h,"C. albicans [2]; Table VII, isolated colonies, 6 strains, gelose 2",++++
same,Reading at t = 24 h,C. albicans [2]; [23],++++
same,Reading at t = 24 h,C. pseudotropicalis [3]; [24],-
same,Reading at t = 24 h,"C. pseudotropicalis [3]; Table VIII, 1 strain, gelose 2",-
same,Reading at t = 24 h,C. pseudotropicalis [3]; [25],-
same,Reading at t = 24 h,"C. guillermondii [4]; 2 strains, gelose 2",+++
same,Reading at t = 24 h,C. guillermondii [4]; [26],-
same,Reading at t = 24 h,"C. pseudotropicalis [5]; 2 strains, gelose 2",-
same,Reading at t = 24 h,C. pseudotropicalis [5]; [26],-
same,Reading at t = 24 h,"T. glabrata [6]; Table IX, 8 strains, gelose 5, cycloheximide",-
same,Reading at t = 24 h,"T. glabrata [6]; Table VIII, 8 strains, gelose 2",-
same,Reading at t = 24 h,T. glabrata [6]; [25],-
same,Reading at t = 24 h,T. glabrata [7]; [27],-
same,Reading at t = 24 h,T. glabrata [7]; [22],-
same,Reading at t = 24 h,T. glabrata [7]; [28],-
same,Reading at t = 24 h,T. glabrata [7]; [23],-
same,Reading at t = 24 h,C. guillermondii [8]; [29],-
same,Reading at t = 24 h,"C. guillermondii [8]; Table VIII, 1 strain, gelose 2",+++
same,Reading at t = 24 h,C. guillermondii [8]; [25],-
same,Reading at t = 24 h,C. tropicalis [9]; [29],-
same,Reading at t = 24 h,"C. tropicalis [9]; Table VIII, 1 strain, gelose 2",-
same,Reading at t = 24 h,C. tropicalis [9]; [25],-
same,Reading at t = 24 h,C. zeylanoides [10],-
same,Reading at t = 24 h,C. tropicalis [11]; [27],-
same,Reading at t = 24 h,C. tropicalis [11]; [22],-
same,Reading at t = 24 h,C. tropicalis [11]; [28],-
same,Reading at t = 24 h,C. tropicalis [11]; [23],-
same,Reading at t = 24 h,Tr. cutaneum [12]; [24],-
same,Reading at t = 24 h,Tr. cutaneum [12]; [30],++
same,Reading at t = 24 h,Tr. cutaneum [12]; [25],-
same,Reading at t = 24 h,"C. albicans [13]; Table IX, 89 strains, gelose 5, cycloheximide",++++
same,Reading at t = 24 h,"C. albicans [13]; Table VIII, 13 strains, gelose 2",++++
same,Reading at t = 24 h,C. albicans [13]; [25],+++
same,Reading at t = 24 h,C. parapsilosis [14]; [29],-
same,Reading at t = 24 h,C. parapsilosis [14]; [30],+++
same,Reading at t = 24 h,C. parapsilosis [14]; [25],-
same,Reading at t = 24 h,"Cr. neoformans; 1 strain, gelose 2",-
same,Reading at t = 24 h,Cr. neoformans; [26],-
same,Reading at t = 24 h,C. krusei [15],-
same,Reading at t = 24 h,"C. parapsilosis [16]; 5 strains, gelose 2",+++
same,Reading at t = 24 h,C. parapsilosis [16]; [26],-
same,Reading at t = 24 h,C. krusei [17],-
same,Reading at 24 h,Candida guillermondii,++++
same,Reading at t = 24 h,C. ciferii,-
same,Reading at t = 24 h,"Tr. cutaneum [18]; 1 strain, gelose 2",+
same,Reading at t = 24 h,Tr. cutaneum [18]; [26],-
same,Specificity: nonspecific for the strains of Candida albicans,Candida albicans; Table I,(a)
same,Reading at 24 h,Candida albicans; Table I,++++
same,Specificity: interference with C. albicans,Candida albicans; Table V,(a)
same,Reading at t = 24 h,"C. zeylanoides [19]; 1 strain, gelose 2",++
same,Reading at t = 24 h,C. zeylanoides [19]; [26],-
same,Reading at t = 24 h,C. cerevisiae,-
O=C(Nc1ccc2ccccc2c1)[C@@H]1CCCN1 [H-L-Pro-NA],reaction with isolated strains,[20],positive reaction
N=C(N)NCCC[C@H](NC(=O)[C@@H]1CCCN1C(=O)CN)C(=O)Nc1ccc([N+](=O)[O-])cc1 [H-Gly-L-Pro-L-Arg-pNA.2AcOH] (H-Gly-Pro-Arg-pNA),Reading at t = 24 h,C. albicans [2],-
same,Reading at t = 24 h,T. glabrata [7],-
same,Reading at t = 24 h,C. tropicalis [11],++
same,Specificity: interference with C. krusei,Candida krusei; Table I,(c)
same,Reading at 24 h,"Candida krusei; Table IV, medium pH 6.0",++++
same,Specificity: interference with C. tropicalis,Candida tropicalis; Table I,(b)
same,Reading at 24 h,"Candida tropicalis; Table II, medium pH 6.0, YNB, glucose, agar, gentamycin",++++
same,C. TROPICALIS reading at 24 h,"Candida tropicalis; Table III, medium pH 6.0",++++
same,Specificity: interference with C. tropicalis,Candida tropicalis; Table IV,(a)
same,Reading at t = 24 h,C. krusei [17],+++
same,T. GLABRATA reading at 24 h,T. glabrata [21],-
same,Reading at 24 h,Candida albicans; Table I,++++
